Experimental data taken from patent publication US20100184853A1, “TERPENES WITH ANTIFUNGAL ACTIVITY AGAINST MALASSEZIA YEASTS” (INSTITUTO BIOMAR, S.A., priority 2007, published 2010).

System: Malassezia furfur CBS 1878
Assay: Antifungal disk diffusion susceptibility test
Format: cell-based
Conditions: 15 nmol per 6 mm paper disc; ML2 plates; two days at 30° C.
Description: Antifungal activity was tested against Malassezia furfur CBS 1878.
Malassezia furfur was grown on ML2 agar plates containing potato dextrose agar 4.2%, ox bile 0.8%, glycerol 1% (v:v), olive oil 1% (v:v), tween 60 0.5% (v:v) for two days, at 30° C., as stock culture.
An area of 2 cm^2 of a growing plate of Malassezia furfur stock culture was scraped using a sterile loop. Biomass was homogenated in 1 ml glycerol 20%. A volume of 100 μl of the glycerol homogenate was spread on testing ML2 plates.
Each test compound was dissolved in distilled water and added on blank paper discs (6 mm, diameter) on the inoculated plates. Plates were incubated for two days at 30° C. Inhibition circles around the discs (halo) were used as activity measure.
Ketoconazol was used as inhibition control.
The test was carried out at 15 nmol for each compound. Antifungal activities are shown at table 1.

Row | SMILES | Halo (inhibition circle around the disc) [mm]
1 | COC1C(=O)CCC(O)(CCl)C1(O)C1(C)OC1CC=C(C)C (stereo not shown) [Chlovalicin] | 35
2 | CO[C@@H]1[C@H](OC(=O)/C=C/C=C/C=C/C=C/C(=O)O)CC[C@]2(CO2)[C@H]1[C@@]1(C)O[C@@H]1CC=C(C)C [Fumagillin] | 27
3 | CC(=O)N1CCN(c2ccc(OCC3COC(Cn4ccnc4)(c4ccc(Cl)cc4Cl)O3)cc2)CC1 (stereo not shown) [Ketoconazol] | 23
4 | CO[C@@H]1C(=O)CC[C@]2(CO2)[C@@]1(O)[C@@]1(C)O[C@@H]1CC=C(C)C [Ovalicin] | 46
